Biological target: T1, small-conductance Ca2+-activated K+ channels (SK channels, subtype 2) (Homo sapiens, UniProt Q9H2S1)
T1 construct: expressed in transfected cells; host or cells: HEK293
Test: whole-cell patch-clamp of ionic current through SK2 channels in HEK293 cells (SC100)
Type: cell-based
Details: whole-cell patch-clamp, HEK293 cells expressing SK2 channels; concentration that increases the basal current by 100%
In short: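 SC100, the concentration doubling basal current (a 100% increase), was taken from SK2 currents recorded by whole-cell patch-clamp in SK2-expressing HEK293 cells.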

Structure (SMILES) | SC100 (μM)
Cc1ccn(-c2nc(N[C@H]3C[C@@H]4CC[C@H]3O4)cc(N3CCOCC3)n2)n1 [NSSy6446] | + (+ means >1 uM)
Cc1ccn(-c2cc(COc3ccc(C(N)=O)nn3)cc(NC3CCC(F)(F)CC3)n2)n1 [NSSy6451] | +++ (+++ means <200 nM)
CC1(O)CC(Oc2cc(-n3ccc(F)n3)nc(NC3CCC(F)(F)CC3)n2)C1 (stereo not shown) [NSSy6464, 3-((2-((4,4-difluorocyclohexyl)amino)-6-(3-fluoro-1H-pyrazol-1-yl)pyrimidin-4-yl)oxy)-1-methylcyclobutan-1-ol] | + (+ means >1 uM)
Fc1ccn(-c2cc(N3CC4(COC4)C3)nc(NC3CCC(F)(F)CC3)n2)n1 [NSSy6467] | + (+ means >1 uM)
Fc1ccn(-c2cc(N3CCOCC3)nc(NC3CCC(F)(F)CC3)n2)n1 [NSSy6468] | + (+ means >1 uM)
Cc1ccn(-c2cc(C(O)Cc3ccc(C#N)cn3)cc(NC3CCC(F)(F)CC3)n2)n1 (stereo not shown) [NSSy6469, 6-(2-(2-((4,4-difluorocyclohexyl)amino)-6-(3-methyl-1H-pyrazol-1-yl)pyridin-4-yl)-2-hydroxyethyl)nicotinonitrile] | +++ (+++ means <200 nM)
Cc1ccn(-c2cc(N3CCOCC3)cc(C(=O)c3ccc(F)cc3)n2)n1 [NSSy6470, (4-fluorophenyl) (6-(3-methyl-1H-pyrazol-1-yl)-4-morpholinopyridin-2-yl) methanone] | + (+ means >1 uM)
Cc1cc(C)n(-c2cc(N3CC4(COC4)C3)nc(NC3CCC(F)CC3)n2)n1 (stereo not shown) [NSSy6471, 4-(3,5-dimethyl-1H-pyrazol-1-yl)-N-(4-fluorocyclohexyl)-6-(2-oxa-6-azaspiro[3.3]heptan-6-yl)pyrimidin-2-amine] | + (+ means >1 uM)
Cc1ccn(-c2cc(N3CCOCC3)cc(C(O)c3ccc(F)cc3)n2)n1 (stereo not shown) [NSSy6472, (4-fluorophenyl) (6-(3-methyl-1H-pyrazol-1-yl)-4-morpholinopyridin-2-yl) methanol] | + (+ means >1 uM)
Cc1nn(-c2cc(C(O)c3ncco3)cc(NC3CCC(F)(F)CC3)n2)c(C)c1F (stereo not shown) [NSSy6473] | ++ (++ means 200 nM-1000 nM)
Cc1ccn(-c2nc(NC3CCC(O)CC3)cc(N3CCOCC3)n2)n1 (stereo not shown) [NSSy6486] | + (+ means >1 uM)
Cc1ccn(-c2cc(S(=O)(=O)N3CCC(F)(F)CC3)cc(N3CCOCC3)n2)n1 [NSSy6489, 4-(4-((4,4-difluoropiperidin-1-yl)sulfonyl)-6-(3-methyl-1H-pyrazol-1-yl)pyridin-2-yl)morpholine] | + (+ means >1 uM)
Cc1ccn(-c2cc(N3CCOCC3)nc(NC3CCC(F)(F)CC3)n2)n1 [NSSy6499] | + (+ means >1 uM)
Cc1ccn(-c2nc(NC34CC5CC(CC(O)(C5)C3)C4)cc(N3CCOCC3)n2)n1 [NSSy6511] | + (+ means >1 uM)
Cc1ccn(-c2cc(N3CCOCC3)cc([C@@H](O)c3ccc(F)cc3)n2)n1 [NSSy6513, (S)-(4-fluorophenyl)(6-(3-methyl-1H-pyrazol-1-yl)-4-morpholinopyridin-2-yl)methanol] | + (+ means >1 uM)
Cc1ccn(-c2cc(N3CCOCC3)cc([C@H](O)c3ccc(F)cc3)n2)n1 [NSSy6514, (R)-(4-fluorophenyl)(6-(3-methyl-1H-pyrazol-1-yl)-4-morpholinopyridin-2-yl)methanol] | + (+ means >1 uM)
COc1cc(-n2nc(C)cc2C)nc(NC2CCC(F)(F)CC2)n1 [NSSy6519, N-(4,4-difluorocyclohexyl)-4-(3,5-dimethyl-1H-pyrazol-1-yl)-6-methoxy pyrimidin-2-amine] | ++ (++ means 200 nM-1000 nM)
Cc1ccn(-c2cc(N3CC4(COC4)C3)nc(NC3CCC(F)(F)CC3)n2)n1 [NSSy6522] | ++ (++ means 200 nM-1000 nM)
Cc1ccnn1-c1cc(N2CC3(COC3)C2)nc(NC2CCC(F)(F)CC2)n1 [NSSy6523] | + (+ means >1 uM)

Structure (SMILES) | SC100 (μM)
Cc1ccnn1-c1cc(N2CCOCC2)nc(NC2CCC(F)(F)CC2)n1 [NSSy6525] | + (+ means >1 uM)
Cc1ccn(-c2nc(NC3CCC(C#N)CC3)cc(N3CCOCC3)n2)n1 (stereo not shown) [NSSy6526] | + (+ means >1 uM)
COC1CCC(Nc2cc(N3CCOCC3)nc(-n3ccc(C)n3)n2)CC1 (stereo not shown) [NSSy6529, N-(4-methoxycyclohexyl)-2-(3-methyl-1H-pyrazol-1-yl)-6-morpholinopyrimidin-4-amine] | + (+ means >1 uM)
Cc1ccn(-c2nc(N[C@H]3CC[C@H](C(N)=O)CC3)cc(N3CCOCC3)n2)n1 [NSSy6539] | + (+ means >1 uM)
Cc1ccn(-c2nc(NC3CCC(N(C)C)CC3)cc(N3CCOCC3)n2)n1 (stereo not shown) [NSSy6540] | + (+ means >1 uM)
Cc1ccn(-c2nc(NC3CCC(C(N)=O)CC3)cc(N3CCOCC3)n2)n1 (stereo not shown) [NSSy6541] | + (+ means >1 uM)
Cc1ccn(-c2nc(NC3CCC(N)CC3)cc(N3CCOCC3)n2)n1 (stereo not shown) [NSSy6550] | + (+ means >1 uM)
Cc1csc(-c2cc(N3CC4(COC4)C3)nc(NC3CCC(F)(F)CC3)n2)n1 [NSSy6558, N-(4,4-difluorocyclohexyl)-4-(4-methylthiazol-2-yl)-6-(2-oxa-6-azaspiro [3.3]heptan-6-yl)pyrimidin-2-amine] | ++ (++ means 200 nM-1000 nM)
Cc1csc(-c2cc(C(O)c3ncco3)cc(NC3CCC(F)(F)CC3)n2)n1 (stereo not shown) [NSSy6563] | ++ (++ means 200 nM-1000 nM)
Cc1ccn(-c2cc(N3CCOCC3)cc(NC3CCC(F)(F)CC3)n2)n1 [NSSy6573] | ++ (++ means 200 nM-1000 nM)
COc1cc(-n2ccc(C)n2)nc(NC2CCC(F)(F)CC2)n1 [NSSy6574] | + (+ means >1 uM)
Cc1ccn(-c2cc(C(O)c3nnc(C)o3)cc(NC3CCC(F)(F)CC3)n2)n1 (stereo not shown) [NSSy6576] | ++ (++ means 200 nM-1000 nM)
Cc1ccn(-c2cc(N3CC4(CCC4)C3)nc(NC3CCC(F)(F)CC3)n2)n1 [NSSy6580] | + (+ means >1 uM)
Cc1ccn(-c2cc(N3CCC4(CCOCC4)C3)nc(NC3CCC(F)(F)CC3)n2)n1 [NSSy6581] | + (+ means >1 uM)
Cc1ccn(-c2cc(N3CC4CCCC4C3)nc(NC3CCC(F)(F)CC3)n2)n1 (stereo not shown) [NSSy6584] | + (+ means >1 uM)
Cc1ccn(-c2cc(N3CC4COCC4C3)nc(NC3CCC(F)(F)CC3)n2)n1 (stereo not shown) [NSSy6585] | + (+ means >1 uM)
Cc1cc(-c2nc(C)cs2)nc(NC2CCC(F)(F)CC2)n1 [NSSy6590] | ++ (++ means 200 nM-1000 nM)
Cc1cc(-n2ccc(C(F)(F)F)n2)nc(NC2CCC(F)(F)CC2)n1 [NSSy6591] | + (+ means >1 uM)

Continued, values first:

SC100 (μM) | Structure (SMILES)
++ (++ means 200 nM-1000 nM) | Cc1cc(-n2nc(C)cc2C)nc(NC2CCC(F)(F)CC2)n1 [NSSy6593]
++ (++ means 200 nM-1000 nM) | CC(=O)N1CCN(c2cc(-c3nc(C)cs3)nc(NC3CCC(F)(F)CC3)n2)CC1 [NSSy6598, 1-(4-(2-((4,4-difluorocyclohexyl)amino)-6-(4-methylthiazol-2-yl)pyrimidin-4-yl)piperazin-1-yl)ethan-1-one]
++ (++ means 200 nM-1000 nM) | CC(=O)N1CCN(c2cc(-n3ccc(C(F)(F)F)n3)nc(NC3CCC(F)(F)CC3)n2)CC1 [NSSy6607]
+ (+ means >1 uM) | COC(C)c1cc(-n2nc(C)cc2C)nc(NC2CCC(F)(F)CC2)n1 (stereo not shown) [NSSy6612]
+ (+ means >1 uM) | COC(C)c1cc(-n2ccc(C(F)(F)F)n2)nc(NC2CCC(F)(F)CC2)n1 (stereo not shown) [NSSy6613]
+ (+ means >1 uM) | CC(O)c1cc(-n2ccc(C(F)(F)F)n2)nc(NC2CCC(F)(F)CC2)n1 (stereo not shown) [NSSy6614]
+ (+ means >1 uM) | CCOc1cc(-n2ccc(C)n2)nc(NC2CCC(F)(F)CC2)n1 [NSSy6625]
++ (++ means 200 nM-1000 nM) | CC(=O)N1CCN(c2cc(-n3ccc(C)n3)nc(NC3CCC(F)(F)CC3)n2)CC1 [NSSy6629, 1-(4-(2-((4,4-difluorocyclohexyl)amino)-6-(3-methyl-1H-pyrazol-1-yl)pyrimidin-4-yl)piperazin-1-yl)ethan-1-one]
++ (++ means 200 nM-1000 nM) | Cc1cc(C)n(-c2cc(N3C[C@H]4C[C@@H]3CO4)nc(NC3CCC(F)(F)CC3)n2)n1 [NSSy6638]
+ (+ means >1 uM) | Cc1cc(C)n(-c2cc(N3C[C@@H]4C[C@H]3CO4)nc(NC3CCC(F)(F)CC3)n2)n1 [NSSy6639]
+ (+ means >1 uM) | Cc1cc(C)n(-c2cc(N3CC4CCC(C3)O4)nc(NC3CCC(F)(F)CC3)n2)n1 [NSSy6644]
+ (+ means >1 uM) | Cc1ccn(-c2cc(C(C)O)nc(NC3CCC(F)(F)CC3)n2)n1 (stereo not shown) [NSSy6650]
+ (+ means >1 uM) | COC(C)c1cc(-n2ccc(C)n2)nc(NC2CCC(F)(F)CC2)n1 (stereo not shown) [NSSy6651]
+ (+ means >1 uM) | Cc1cc(C)n(-c2cc(-n3nc(C)cc3C)nc(NC3CCC(F)(F)CC3)n2)n1 [NSSy6654]
+ (+ means >1 uM) | COCc1cc(-n2ccc(C(F)(F)F)n2)nc(NC2CCC(F)(F)CC2)n1 [NSSy6674, N-(4,4-difluorocyclohexyl)-4-(methoxymethyl)-6-(3-(trifluoromethyl)-1H-pyrazol-1-yl)pyrimidin-2-amine]
+ (+ means >1 uM) | COCCOc1cc(-n2ccc(C)n2)nc(NC2CCC(F)(F)CC2)n1 [NSSy6675]
+ (+ means >1 uM) | Cc1ccn(-c2cc(N(C)C)nc(NC3CCC(F)(F)CC3)n2)n1 [NSSy6677]
++ (++ means 200 nM-1000 nM) | Cc1ccn(-c2cc(N3CCNCC3)nc(NC3CCC(F)(F)CC3)n2)n1 [NSSy6679]
+ (+ means >1 uM) | Cc1ccn(-c2cc(C(=O)O)nc(NC3CCC(F)(F)CC3)n2)n1 [NSSy6684, 2-((4,4-difluorocyclohexyl)amino)-6-(3-methyl-1H-pyrazol-1-yl)pyrimidine-4-carboxylic acid]
++ (++ means 200 nM-1000 nM) | Cc1ccn(-c2cc(OCCN(C)C)nc(NC3CCC(F)(F)CC3)n2)n1 [NSSy6686]
++ (++ means 200 nM-1000 nM) | CNc1cc(-n2ccc(C)n2)nc(NC2CCC(F)(F)CC2)n1 [NSSy6688]

From patent US10774064B2 (Cadent Therapeutics, Inc., priority 2016, dated 2020)
